We go through seven molecules from PubChem BioAssay (NCI).

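Five compound concentrations were applied to cells in 96-well plates for 48 hours; endpoints were derived by simple linear interpolation of the resulting dose-response curve. TGI denotes the concentration required for complete inhibition of growth.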 A value given as a limit tells only on which side of the number the result lay.

What all share (experiment): NCI tumour cell line growth inhibition, 48 h
Assay [1] deals with SW-620 colon.
The subject of assay [2] is OVCAR-3 ovarian.
Assay [3] has as its system OVCAR-8 ovarian.
For assay [4], the system named is NCI-H23 lung.
Assay [5] relates to 786-0 renal.
Assay [6] deals with A498 renal.
Assay [7] deals with NCI-H226 lung.
Assay [8] deals with SK-MEL-2 melanoma.
Assay [9] deals with MOLT-4 leukemia.
Assay [10] has as its system IGROV1 ovarian.
Assay [11] has as its system UACC-257 melanoma.
For assay [12], the system named is A549 NSCLC.
The subject of assay [13] is DU-145 prostate.
Assay [14] relates to OVCAR-5 ovarian.
Assay [15] relates to HT29 colon.
Assay [16] relates to HOP-92 NSCLC.
Assay [17] deals with SNB-75 CNS.
Assay [18] deals with COLO 205 colon.
The test system of assay [19] is NCI-H460 lung.
Assay [20] concerns EKVX NSCLC.

With `CCOc1cc2c(cc1O)CC[C@@H]1[C@@H]2CC[C@]2(C)C(N)CC[C@@H]12` (stereo not given in full), the TGI was 14.3 µM in [1]; 24.7 µM in assay [2]; 11.2 µM in [3]; 16.7 µM in assay [4]; 13.8 µM in [5]; 18.7 µM in [6]. Moreover, the TGI amounted to 10.4 µM in assay [7]; 21.3 µM in assay [8]; 24.7 µM in [9]; 12.6 µM in assay [10]; 16.3 µM in [11]; 16.1 µM in assay [12]. Besides, the TGI was determined as 7.08 µM in assay [13]; 36.9 µM in assay [14]; 6.4 µM in [15]; 27 µM in assay [16]; 6.48 µM in assay [17]; 17.3 µM in [18]. For the same molecule, the results for the TGI in [19] and in [20] were 11.6 µM and 20.9 µM, respectively.

In the case of `CN1CCCOC(c2ccc([N+](=O)[O-])cc2)O1` (stereo not given), the TGI in assay [1], in assay [2], in assay [3], in [4], in [5] and in assay [6] was greater than 100 µM throughout. Moreover, the TGI in [7], in assay [8], in [9], in assay [10], in assay [11] and in assay [12] was greater than 100 µM throughout. In addition, the TGI in assay [13], in [14], in assay [15], in assay [16], in assay [17] and in [18] was greater than 100 µM throughout. Besides, the TGI in assay [19] and in [20] was greater than 100 µM in each case.

With `CC1=C(C(=O)N(C(C)C)C(C)C)CC(C(=O)N(C(C)C)C(C)C)=C(C)N1`, the TGI in assay [1], in assay [2], in assay [3], in assay [4], in assay [5] and in [6] was greater than 100 µM in each case. Besides, the TGI in [7], in assay [8], in [9], in assay [10], in [11] and in assay [12] was greater than 100 µM each time. Besides, the TGI in assay [13], in assay [14], in [15], in assay [16], in assay [17] and in assay [18] was greater than 100 µM throughout. For the same molecule, the TGI in [19] and in assay [20] was greater than 100 µM each time.

On to `Cc1ccc(C2SC(N)=Nc3c2c(C)nn3C(=O)c2ccccc2O)cc1` (stereo not given), for which the TGI in assay [1], in assay [2], in [3], in [4], in [5] and in assay [6] was greater than 10 µM each time. Also, the TGI in [7], in assay [8], in [9], in assay [10], in assay [11] and in assay [12] was greater than 10 µM throughout. Moreover, the TGI in assay [13] was greater than 10 µM; in assay [14] it was greater than 10 µM; in assay [15] it was greater than 10 µM; in assay [16], 5.02 µM; in assay [17] it was 7.14 µM; in assay [18] it was greater than 10 µM. The TGI in assay [19] and in assay [20] was greater than 10 µM each time.

With `O=P1(c2ccccc2)C(c2ccccc2)=CC=C1c1ccccc1`, the TGI in [1] was greater than 100 µM; in [2] it was 89.8 µM; in assay [3] it was 43.4 µM; in [4], greater than 100 µM; in assay [5], greater than 100 µM; in [6], greater than 100 µM. For the same molecule, the TGI in assay [7] was greater than 100 µM; in assay [8], 40.9 µM; in assay [9] it was 44 µM; in [10], greater than 100 µM; in assay [11], greater than 100 µM; in assay [12] it was greater than 100 µM. In addition, the TGI is greater than 100 µM in [13]; greater than 100 µM in assay [14]; 50.2 µM in [15]; 51.1 µM in [16]; 60.1 µM in assay [17]; 46.1 µM in assay [18]. Moreover, the TGI in [19] and in assay [20] was greater than 100 µM in each case.

As for `C=C1C(=O)O[C@H]2[C@H](OC(C)=O)[C@@H](C)CCC/C(C)=C/CC[C@@]3(C)O[C@@H]3C[C@@H]12`, the TGI was greater than 23.1 µM in assay [1]; 16.2 µM in assay [2]; 2.63 µM in [3]; 10.8 µM in assay [4]; 3.56 µM in [5]; 8.76 µM in [6]. For the same molecule, the TGI was determined as 3.32 µM in assay [7]; 19.5 µM in [8]; 10.1 µM in [9]; 18.4 µM in assay [10]; 11.7 µM in assay [11]; 34.6 µM in assay [12]. The TGI was 6.87 µM in assay [13]; 27.6 µM in assay [14]; 8.05 µM in [15]; 5.54 µM in assay [16]; 21.2 µM in [17]; 16.5 µM in [18]. In addition, the TGI turned out to be 19.7 µM in assay [19] and 8.79 µM in assay [20].

With `O=[N+]([O-])c1cc2c(c([N+](=O)[O-])c1)NCc1ccccc1O2`, the TGI in assay [1], in assay [2], in assay [3], in assay [4], in [5] and in assay [6] was greater than 100 µM throughout. The TGI in assay [7], in [8], in assay [9], in [10], in assay [11] and in [12] was greater than 100 µM in each case. Also, the TGI in [13] is greater than 100 µM; in [14], greater than 100 µM; in assay [15] it was greater than 100 µM; in assay [16], greater than 100 µM; in [17], 48.2 µM; in assay [18] it was greater than 100 µM. Besides, the TGI in assay [19] and in assay [20] was greater than 100 µM each time.
